# According to patent US11872298B2, “Cosmetic use of arthrofactin” (L'OREAL, priority 2016, dated 2024):
# *1 amine or outer side, *2 acyl side, *3 side chain or, on linkers, in order; H or OH if unused. Where a SMILES comes first, the peptide text is derived from it. Bridges are numbered along the chain shown (N, C = ends). [ ]: non-standard residue; d: D form. X1 = CC(C)CCCCCCCCC[C@H](CC(=O)[*:1])O[*:2]
# Test system: genes associated with moisturization in keratinocytes
# Assay: Expression of genes associated with moisturization in keratinocytes cultivated in vitro (quantitative PCR)
# Type: cell-based, human
# Details: 0.002 mg/L and 0.01 mg/L in water
# Experimental: K266 human epidermic keratinocytes were seeded in wells (50,000 cells/well) and cultivated in a Dermalife K medium (Lifeline LL-007) for 3 days at 37° C. and 5% of CO2. At the end of incubation, the culture medium was replaced by a test medium (K Dermalife supplemented with 1.5 mM CaCl2) containing or not containing (control) the mixture of arthrofactins obtained in example 1 in the form of a powder diluted to 0.1% in water or references (retinoic acid at 0.1 μM and 1 μM, or retinol at 10 μM). The cells were then incubated for 24 hours.
# In parallel, normal human keratinocytes (NHK, 01.12) were seeded in wells (50,000 cells/well) and cultivated in a COMPLETE KGM medium (KGM BULLETKIT, LONZA, CC-3111) for 3 days at 37° C. and 5% of CO2. […]
# The quantification of RNA and quality control were analyzed using LabChip GX (Perkin Elmer). Reverse transcription (RT) of RNA into cDNA was carried out using the Quantitect® inverse transcription kit (QIAGEN) following the manufacturer's recommendations. […]
# The expression of selected transcripts was then analyzed by quantitative PCR using a LightCycler 480 Real-Time PCR System 384-well plate system (Roche) using the SYBR® Green incorporation technique (Roche). […]
structure (smiles),measurement,value
CC(C)CCCCCCCCC[C@@H]1CC(=O)N[C@@H](CCC(=O)O)C(=O)N[C@@H](CC(C)C)C(=O)N[C@H](CC(C)C)C(=O)N[C@@H](C(C)C)C(=O)N[C@@H](CC(=O)O)C(=O)N[C@H](CC(C)C)C(=O)N[C@@H](CC(C)C)C(=O)O1 [Sodium Surfactin] (EL[dL]VD[dL]L; linker N-C via X1),Expression of genes associated with moisturization in keratinocytes,lower expression
